This experiment concerns Mycobacterium tuberculosis. Nature of the experiment: Antimycobacterial activity against Mycobacterium bovis BCG assessed as inhibition of mycobacterial replication after 6 days by microplate Alamar blue assay. It is filed as functional. The settings on record: variant bovis BCG, 144 h.

In brackets after ≈: the same amount, converted by molar mass.

As a reminder, the MIC90 is the lowest concentration that inhibits either 90% of growth or 90% of the strains tested, depending on the study. For orientation: MIC50 means an inhibitory concentration at the 50% level, which refers to growth in some studies and to a panel of isolates in others.

Regarding `CO[C@H]1/C=C/O[C@@]2(C)Oc3c(C)c(O)c4c(O)c(c(/C=N/N5CCN(C)CC5)c(O)c4c3C2=O)NC(=O)/C(C)=C\C=C\[C@H](C)[C@H](O)[C@@H](C)[C@@H](O)[C@@H](C)[C@H](OC(C)=O)[C@@H]1C` [RIFAMPIN], the MIC90 is 1 µg/mL (≈ 1.22 µM).

In the case of `CCCCCCCCC#Cc1c[nH]c(=O)nc1N`, the MIC50 was found to be 50 µg/mL (≈ 202 µM). Still for that read-out and setting: for `CCCCCC#Cc1c[nH]c(=O)nc1N` the value was 12.5 µg/mL (≈ 60.9 µM). Same read-out and setting: the same measure for `Nc1nc(=O)[nH]cc1C#Cc1ccccc1`: 25 µg/mL (≈ 118 µM).

The values above are taken from ChEMBL document CHEMBL3784999, “Investigation of 4-amino-5-alkynylpyrimidine-2(1H)-ones as anti-mycobacterial agents” (Bioorg Med Chem, 2016).
